Reference: patent publication US4438201A, “Amidohydrolase having ability to depantothenylate an antibiotic” (Sanraku-Ocean Co., Ltd., priority 1981, dated 1984)

Tests used:
[1] = test system: amidohydrolase (enzyme of this invention); assay: Experiment C: acyl transfer from acyl-CoA to 6-APA; type: biochemical, Streptomyces fulvoviridis A933; details: acetyl-CoA or glutaryl-CoA; 37° C., 3 hours
Experimental: 0.2 M Potassium phosphate buffer, pH 7.4 (10 μl), 10 μl of 6-aminopenicillanic acid (6-APA) (500 μg/ml), 20 μl of acyl-CoA (5 μmoles/ml) and 10 μl of the enzyme preparation from Example 1 were mixed and incubated at 37° C. for 3 hours. The products were analyzed by HVPE in the same way as in Example 2, employing acetic acid buffer, pH 4.5 Acetyl-CoA and glutaryl-CoA were used as acyl-CoA.
The controls were the same reaction mixtures minus enzyme solution and acyl-CoA respectively.

[2] = test system: amidohydrolase (enzyme of this invention); assay: Effects of metal ions, chelating agents and -SH inhibitors on enzyme activity; type: biochemical, Streptomyces fulvoviridis A933
Experimental: (§1) Ten microliters of 0.2 M piperazine-N,N'-bis(2-ethanesulfonic acid) [=PIPES] buffer, pH 7.3, and 10 μl of 100 mM N-chloroacetyl-L-phenylalanine (adjusted to pH 6-7 with NaOH) are dissolved in 20 μl of water. After 10 μl of an enzyme solution (30-50 μg/ml) is added, the mixture is incubated at 37° C. for 15 minutes. Then, 50 μl of 50% acetic acid is added to stop the enzymatic reaction. The amount of L-phenylalanine produced from the substrate in the reaction solution is determined by the Yemm-Cocking ninhydrin colorimetric method (E. W. Yemm & E. C. Cocking: Analyst, Vol. 80, page 209, 1955) or with an amino acid automatic analyzer (Model 835-50, Hitachi Limited).
The relative activity in Table 2 refers to the activity of the enzyme in the absence of such chemical as 100.

[3] = test system: amidohydrolase (enzyme of this invention); assay: Substrate specificity for N-acyl-amino acids (deacylation, standard assay); type: biochemical, Streptomyces fulvoviridis A933; details: N-chloroacetyl-L-phenylalanine as 100
Experimental: The relative activity in Table 1 refers to N-chloroacetyl-L-phenylalanine as 100.
as §1

[4] = test system: cell-free homogenate of Streptomyces cattleya (acylase); assay: Example 2: action of cell-free homogenate on PS-5 and OA-6129A; type: biochemical, Streptomyces cattleya (NRRL 8057)
Experimental: Glucose (2.5 g), 1 g of corn steep liquor, 0.5 g of Pharmamedia® (a product of Traders Oil Mill Company), 0.5 g of yeast extract and 0.3 g of CaCO3 were dissolved in 100 ml of tap water, and the pH of the suspension was adjusted to 7.0. Then, 50 ml portions of the suspension were distributed in 250 ml Erlenmeyer flasks, and sterilized at 120° C. for 15 minutes. After cooling Streptomyces cattleya (NRRL 8057) was inoculated, and the flasks were cultivated at 28° C. for 90 hours with shaking.
Mycelia were collected by centrifugation and treated by the same procedure as in Example 1 to give 20 ml of a cell-free homogenate. With this fresh homogenate, the enzymological properties of Streptomyces cattleya acylase were examined.
A mixture containing 10 μl of 0.2 M potassium phosphate buffer, pH 7.4, 10 μl of an antibiotic PS-5 solution (500 μg/ml) or an antibiotic OA-6129A solution (500 μg/ml), 10 μl of acyl-CoA (5 μmoles/ml) and 20 μl of the cell-free homogenate was incubated at 37° C. for 4 hours. The product was analysed by HVPE in the same manner as in Experiment A.
The control reaction mixtures contained either no cell-free homogenate or no acyl-CoA. Acetyl-CoA and n-propionyl-CoA were used as acyl-CoA.

[5] = test system: cell-free homogenate of Streptomyces cremeus subsp. auratilis; assay: Example 3: action of cell-free homogenate on PS-5 and OA-6129A; type: biochemical; details: 37° C., 4 hours
Experimental: Soluble starch (5.2 g), 1.2 g of Essan-Miit, 0.16 g of NaCl, 0.08 g of K2 HPO4 and 0.04 g of MgSO4.7H2 O were dissolved in 80 ml of tap water and 40 ml portions of the suspension were filled in two 250 ml Erlenmeyer flasks. After autoclaving at 120° C. for 15 minutes, Streptomyces cremeus subsp. auratilis was inoculated, and cultivated at 28° C. for 68 hours. Using the same procedure as in Example 1, 20 ml of the cell-free homogenate was obtained. For confirmation of the enzyme activity, the following reactions were studied.
A mixture (50 μl) consisting of 10 μl of 0.2 M potassium phosphate buffer, pH 7.4, 10 μl of an antibiotic PS-5 solution (500 μg/ml) or an antibiotic OA-6129A solution (500 μg/ml), 20 μl of the cell-free homogenate and 10 μl of water was kept at 37° C. for 4 hours. The products were assayed by HVPE in the same way as in Experiment A.
As a control, the above reaction was carried out without the cell-free homogenate.

[6] = test system: amidohydrolase (enzyme of this invention); assay: Experiment A: action of the enzyme on PS-5 and OA-6129A, HVPE bioautography and pantothenate bioassay; type: biochemical, Streptomyces fulvoviridis A933
Experimental: A mixture (50 μl) consisting of 10 μl of 0.2 M potassium phosphate buffer, pH 7.4, 20 μl of an antibiotic PS-5 solution (500 μg/ml) or an antibiotic OA-6129A solution (500 μg/ml), 10 μl of the enzyme solution obtained in Example 1, and 10 μl of water was incubated at 37° C. for 3 hours.
As a control, the mixture minus the enzyme solution was allowed to react under the same conditions.
3 μl of each of the resulting reaction solutions was spotted on Watmann No. 1 filter paper, and subjected to electrophoresis for 50 minutes at 1500 V/30 cm with Veronal buffer, pH 8.6. After electrophoresis, the products were bioautographed with Comamonas terrigena B-996 as assay organism.

[7] = test system: cell-free homogenate of Streptomyces argenteolus; assay: Example 4: action of cell-free homogenate on PS-5 and OA-6129A; type: biochemical; details: tested as in Example 3
Experimental: Glycerol (4 g), 0.5 g of peptone, 0.2 g of glucose, 0.2 g of soluble starch, 0.5 g of Essan Miit®, 0.5 g of dry yeast, 0.5 g of NaCl and 0.2 g of CaCO3 were dissolved in 100 ml of tap water. Each 25 ml portion of the suspension was distributed in 250 ml Erlenmeyer flasks, and sterilized at 120° C. for 15 minutes. After cooling the culture medium, Streptomyces argenteolus was inoculated and cultivated at 28° C. for 68 hours with shaking. 20 ml of a cell extract was obtained. The same procedure of treatment as in Example 1 yielded 20 ml of a cell-free homogenate which was tested as explained in Example 3.

[8] = test system: amidohydrolase (enzyme of this invention); assay: Experiment B: acyl exchange of OA-6129A with acyl-CoA; type: biochemical, Streptomyces fulvoviridis A933; details: acetyl-, n-propionyl-, n-butyryl- or glutaryl-CoA; 37° C., 3 hours
Experimental: A mixture consisting of 10 μl of 0.2 M potassium phosphate buffer, pH 7.4, 10 μl of a solution of antibiotic OA-6129A (500 μg/ml), 10 μl of acyl-CoA (5 μmoles/ml), 10 μl of the enzyme preparation from Example 1 and 10 μl of water was allowed to react at 37° C. for 3 hours. The product was assayed by high voltage paper electrophoresis (HVPE) in the same way as in Experiment A.
As controls, the same mixture minus acyl-CoA and the same mixture minus the enzyme solution were incubated under the same conditions as mentioned above.
Acetyl-CoA, n-propionyl-CoA, n-butyryl-CoA and glutaryl-CoA were used as acyl-CoA.

[9] = additive 1 mM, activity without additive as 100, 15 min
[10] = additive 0.1 mM, activity without additive as 100, 15 min

Row | SMILES | Relative activity [2, 9] | Relative activity [3] | also measured
1 | CC1(C)S[C@@H]2[C@H](N)C(=O)N2[C@H]1C(=O)O [6-APA, 6-aminopenicillanic acid] | – | – | Acyl transfer from acyl-CoA to the amino group [1]: converted to the corresponding acyl-6-APA
2 | [Cl][Cd][Cl] [CdCl2] | 10.2 | – | –
3 | [Cl-].[Cl-].[Co+2] [CoCl2] | 82.4 | – | Relative activity ([2]; additive 0.2 mM, activity without additive as 100, 15 min): 92.3; Relative activity ([2]; additive 2 mM, activity without additive as 100, 15 min): 3.8; Relative activity ([2]; additive 4 mM, activity without additive as 100, 15 min): 0
4 | [Co+2] [Co^++] | – | – | Effect of the ion on the enzyme (in words) ([2]; known acylases are activated or stabilized by 0.5 to 10 mM): inhibited
5 | [Cl][Cu][Cl] [CuCl2] | 0 | – | Relative activity [2, 10]: 87.5
6 | O=C(O)CN(CCN(CC(=O)O)CC(=O)O)CC(=O)O [EDTA, ethylenediaminetetracetic acid] | – | – | Relative activity ([2]; pipes buffer, pH 7.3, 15 min, 1000 µM): 95.8
7 | O=S(=O)([O-])[O-].[Fe+2] [FeSO4] | 53.2 | – | –
8 | [Cl][Hg][Cl] [HgCl2] | 0 | – | Relative activity ([2]; additive 0.01 mM, activity without additive as 100, 15 min): 84.5; Relative activity [2, 10]: 6.4
9 | [Cl-].[Cl-].[Mg+2] [MgCl2] | 93.6 | – | –
10 | [Cl][Mn][Cl] [MnCl2] | 74.3 | – | –
11 | CC(=O)N[C@H](C)C(=O)O [N--Acetyl-D-alanine] | – | 0 | –
12 | CC(=O)N[C@H](CC(C)C)C(=O)O [N--Acetyl-D-leucine] | – | 0 | –
13 | CSCC[C@@H](NC(C)=O)C(=O)O [N--Acetyl-D-methionine] | – | 0 | –
14 | CC(=O)N[C@H](Cc1ccccc1)C(=O)O [N--Acetyl-D-phenylalanine] | – | 0 | –
15 | CC(=O)N[C@@H](C(=O)O)C(C)C [N--Acetyl-D-valine] | – | 0 | –
16 | CC(=O)N[C@@H](C)C(=O)O [N--Acetyl-L-alanine] | – | 163.8 | –
17 | CC(=O)N[C@@H](CCC(=O)O)C(=O)O [N--Acetyl-L-glutamic acid] | – | 2.7 | –
18 | CC(=O)N[C@@H](CC(C)C)C(=O)O [N--Acetyl-L-leucine] | – | 92.8 | –

Row | SMILES | Relative activity [2, 9] | Relative activity [3] | also measured
19 | CSCC[C@H](NC(C)=O)C(=O)O [N--Acetyl-L-methionine] | – | 262.1 | –
20 | CC(=O)N[C@@H](Cc1ccccc1)C(=O)O [N--Acetyl-L-phenylalanine] | – | 15.3 | –
21 | CC(=O)N[C@H](C(=O)O)C(C)C [N--Acetyl-L-valine] | – | 32.4 | –
22 | CC(=O)NCC(=O)O [N--Acetyl-glycine] | – | 23.9 | –
23 | CC(C)C[C@H](NC(=O)CCl)C(=O)O [N--Chloroacetyl-L-leucine] | – | 348.5 | –
24 | O=C(CCl)N[C@@H](Cc1ccccc1)C(=O)O [N--Chloroacetyl-L-phenylalanine] | – | 100 | –
25 | CC(C)[C@H](NC(=O)CCl)C(=O)O [N--Chloroacetyl-L-valine] | – | 351.1 | –
26 | CC(C)C[C@H](NC=O)C(=O)O [N--Formyl-L-leucine] | – | 16.4 | –
27 | CSCC[C@H](NC=O)C(=O)O [N--Formyl-L-methionine] | – | 112.7 | –
28 | CC(=O)N[C@@H](CCCCN)C(=O)O [N--α-Acetyl-L-lysine] | – | 39.8 | –
29 | O=S(=O)([O-])[O-].[Ni+2] [NiSO4] | 79.4 | – | –
30 | CCC1C(=O)N2C(C(=O)O)=C(SCCNC(=O)CCNC(=O)C(O)C(C)(C)CO)CC12 (stereo not drawn) [OA-6129A] | – | – | Acyl exchange with acyl-CoA by the cell-free homogenate ([4]; acetyl-CoA present): transform to PS-5; Depantothenylation by the cell-free homogenate ([4]; without acyl-CoA, 37° C., 4 hours): catalyzes the depantothenylation; Depantothenylation by the cell-free homogenate [5]: has the ability to eliminate the pantotheinyl group; Depantothenylation of the substrate by the enzyme ([6]; 37° C., 3 hours, pH 7.4): removes the pantotheinyl group; Concentration of pantothenate in the reaction solution ([6]; bioassay with Saccharomyces carlsbergensis (ATCC 9080), enzyme present): 8 µg/mL; Depantothenylation by the cell-free homogenate [7]: does depantothenylate; Exchange of the pantotheinyl group with the acyl group of acyl-CoA [8]: catalyzes the exchange of the pantotheinyl group
31 | CCC1C(=O)N2C(C(=O)O)=C(SCCNC(C)=O)CC12 (stereo not drawn) [PS-5] | – | – | Susceptibility of the substrate to the cell-free homogenate ([4]; irrespective of the presence of acyl-CoA, 37° C., 4 hours): not susceptible; Deacetylation by the cell-free homogenate [5]: no ability to deacetylate; Deacetylation of the substrate by the enzyme ([6]; 37° C., 3 hours, pH 7.4): did not attack antibiotic PS-5 at all; Deacetylation by the cell-free homogenate [7]: no ability to deacetylate
32 | [Cl][Pb][Cl] [PbCl2] | 58.8 | – | –
33 | [Cl][Sn][Cl] [SnCl2] | 64.4 | – | –
34 | [Cl-].[Cl-].[Zn+2] [ZnCl2] | 7.7 | – | –
35 | c1cnc2c(c1)ccc1cccnc12 [o-PT, ophenanthroline] | 56.4 | – | –
36 | O=C(O)c1cc[c]([Hg][Cl])cc1 [p-CMB, pchloromercuribenzoic acid] | 0 | – | –
